The values below are quoted from earlier work in patent publication US20240335465A1 (University of Virginia Patent Foundation, priority 2021, published 2024).

SMILES strings stand for the structures.

For this data set, the system named is cGAS. The conditions noted are these: Liu et al., 2018; cited from earlier work.

In the case of `O=C(c1cc(Cc2n[nH]c(=O)c3ccccc23)ccc1F)N1CCN(C(=O)C2CC2)CC1` [olaparib], the “cGAS-PARP1 interactions and DNA damage-induced nuclear cGAS translocation” value was “blocked”.
